For three compounds, IC50 results are on record in patent US5627211A, “Cyclohexyl amine derivatives and their use as tachykinin antagonists” (Merck Sharp & Dohme Limited, priority 1992, dated 1997).

The target of the assay is human NK1R (Homo sapiens, UniProt P25103). In words: human NK1R assay: displacement of radiolabelled substance P binding. As to the method: The substance P antagonizing activity of the compounds described herein was evaluated using the human NK1R assay described in published European patent application no. 0 528 495. The method essentially involves determining the concentration of the test compound required to reduce by 50% the amount of radiolabelled substance P binding to human NK1R, thereby affording an IC50 value for the test compound.

Where [1] appears, read: radiolabelled substance P, assay as in EP 0 528 495, read-out: IC50 (concentration of the test compound required to reduce by 50% the amount of radiolabelled substance P binding to human NK1R).

Read-outs that look alike come from different tables or passages of the source.

human NK1R, sequence (P25103 whole entry): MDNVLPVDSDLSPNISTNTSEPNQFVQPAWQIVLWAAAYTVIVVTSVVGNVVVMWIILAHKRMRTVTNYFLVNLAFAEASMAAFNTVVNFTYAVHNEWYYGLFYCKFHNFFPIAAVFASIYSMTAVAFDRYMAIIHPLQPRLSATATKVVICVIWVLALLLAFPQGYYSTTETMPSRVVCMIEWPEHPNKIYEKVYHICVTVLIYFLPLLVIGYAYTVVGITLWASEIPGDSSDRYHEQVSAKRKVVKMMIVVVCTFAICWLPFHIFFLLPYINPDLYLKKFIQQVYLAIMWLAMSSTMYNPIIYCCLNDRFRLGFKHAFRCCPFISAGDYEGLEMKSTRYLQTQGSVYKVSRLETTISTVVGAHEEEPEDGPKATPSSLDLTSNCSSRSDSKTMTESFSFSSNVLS

For the compound `Cc1cc(C)cc(COC2CCCCC2(N)c2ccccc2)c1` (stereo not drawn) [Example 1, 1-(3,5-Dimethylbenzyloxy)-2-amino-2-phenylcyclohexane], the IC50 came to 100 nM.
`NC1(c2ccccc2)CCCCC1OCc1cc(C(F)(F)F)cc(C(F)(F)F)c1` (stereo not drawn) [Example 5, 1-(Bis-3,5-trifluoromethylbenzyoxy)-2-amino-2-phenylcyclohexane]: the IC50 under setting [1] was determined as 350 nM.
Consider `NC(=O)CNC1(c2ccccc2)CCCCC1OCc1cc(C(F)(F)F)cc(C(F)(F)F)c1` (stereo not drawn) [Example 6, 1-(Bis-3,5-trifluoromethylbenzyoxy)-2-(carboxamido)methylamino-2-phenylcyclohexane], for which, under setting [1], the IC50 was 100 nM.
